Measurements as given in PubChem BioAssay (NCI).
“And” between values parts separate entries of the source, which are not always exact repeats. Identical values can stand only once.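 Results reflect a 48-hour exposure of cells in 96-well plates to compound at five concentrations. The concentration for 50% growth inhibition is given as GI50. The concentration for full growth arrest is given as TGI.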

Legend:
Experiment in all cases: NCI anticancer screen, dose series, 48 h
HS 578T breast = tested on: HS 578T breast
A549 NSCLC = tested on: A549 NSCLC
OVCAR-5 ovarian = tested on: OVCAR-5 ovarian
NCI-H226 lung = tested on: NCI-H226 lung
HL-60(TB) leukemia = tested on: HL-60(TB) leukemia
MOLT-4 leukemia = tested on: MOLT-4 leukemia
SN12C renal = tested on: SN12C renal
SK-OV-3 ovarian = tested on: SK-OV-3 ovarian
UO-31 renal = tested on: UO-31 renal
IGROV1 ovarian = tested on: IGROV1 ovarian

## CCN1C(=O)N(c2ccccc2)C2NC(=S)N(/N=C/C=C/c3ccccc3)C21 (configuration not stated)
HS 578T breast
  GI50: 0.339 µM
  TGI: > 100 µM
A549 NSCLC
  GI50: 0.417 µM
  TGI: > 100 µM
OVCAR-5 ovarian
  GI50: 0.631 µM
  TGI: > 100 µM
NCI-H226 lung
  GI50: 2.79 µM
  TGI: > 100 µM
HL-60(TB) leukemia
  GI50: 0.227 µM
  TGI: 0.745 µM
MOLT-4 leukemia
  GI50: 0.38 µM
  TGI: > 100 µM
SN12C renal
  GI50: 0.742 µM
  TGI: > 100 µM
SK-OV-3 ovarian
  GI50: 0.421 µM
  TGI: > 100 µM
UO-31 renal
  GI50: 0.499 µM
  TGI: > 100 µM
IGROV1 ovarian
  GI50: 0.599 µM
  TGI: > 58.2 µM

## COc1cc(/C=C/C(=O)c2c(C)nc3ccccc3c2/C=C/c2ccc(C)cc2)cc(OC)c1OC
HS 578T breast
  GI50: 3.26 µM
  TGI: > 100 µM
A549 NSCLC
  GI50: 2.94 µM
  TGI: > 100 µM
OVCAR-5 ovarian
  GI50: 2.18 µM
  TGI: 5.38 µM
NCI-H226 lung
  GI50: 2.18 µM
  TGI: 6.11 µM
HL-60(TB) leukemia
  GI50: 2.22 µM
  TGI: 6.29 µM
MOLT-4 leukemia
  GI50: 2.56 µM
  TGI: > 100 µM
SN12C renal
  GI50: 1.85 µM
  TGI: 4.31 µM
SK-OV-3 ovarian
  GI50: 11 µM
  TGI: > 100 µM
UO-31 renal
  GI50: 1.37 µM
  TGI: 2.67 µM
IGROV1 ovarian
  GI50: 1.72 µM
  TGI: 3.72 µM

## COc1cc(/C=N/NC(=O)c2cnn3c2NC(c2ccccc2)C3)ccc1Oc1ccccc1 (configuration not stated)
HS 578T breast
  GI50: 1.65 µM
  TGI: 5.22 µM
A549 NSCLC
  GI50: 1.5 µM
  TGI: 5 µM
OVCAR-5 ovarian
  GI50: 2.34 µM
  TGI: 11.9 µM
NCI-H226 lung
  GI50: 2.17 µM
  TGI: 7.95 µM
MOLT-4 leukemia
  GI50: 1.99 µM
  TGI: 20.4 µM
SN12C renal
  GI50: 1.78 µM
  TGI: 4.22 µM
SK-OV-3 ovarian
  GI50: 1.47 µM
  TGI: 10.6 µM
UO-31 renal
  GI50: 1.69 µM
  TGI: 12.2 µM
IGROV1 ovarian
  GI50: 1.36 µM
  TGI: 10.8 µM

## Cc1ccc2c(c1)C(C)Cc1c(Cl)ncnc1N2C (configuration not stated)
HS 578T breast
  GI50: 1.89 µM
  TGI: 34 µM
A549 NSCLC
  GI50: 4.26 µM
  TGI: > 100 µM
OVCAR-5 ovarian
  GI50: 5.05 µM
  TGI: 49.3 µM
NCI-H226 lung
  GI50: 2.03 µM
  TGI: 5.34 µM
HL-60(TB) leukemia
  GI50: 3.07 µM
  TGI: 71.8 µM
MOLT-4 leukemia
  GI50: 3.37 µM
  TGI: > 100 µM
SN12C renal
  GI50: 3.64 µM
  TGI: 13.7 µM
SK-OV-3 ovarian
  GI50: 3.75 µM
  TGI: 31 µM
UO-31 renal
  GI50: 3.03 µM
  TGI: 45.2 µM
IGROV1 ovarian
  GI50: 3.39 µM
  TGI: 36.4 µM

## COc1ccc(-n2cc(-c3cc(OC)c(OC)c(OC)c3)nc2SCc2ccccc2)cc1OC
HS 578T breast
  GI50: > 100 µM
  TGI: > 100 µM
A549 NSCLC
  GI50: 48.8 µM
  TGI: > 100 µM
OVCAR-5 ovarian
  GI50: > 100 µM
  TGI: > 100 µM
NCI-H226 lung
  GI50: > 78.7 µM
  TGI: > 100 µM
HL-60(TB) leukemia
  GI50: 48.2 µM
  TGI: > 100 µM
MOLT-4 leukemia
  GI50: 24.6 µM
  TGI: > 100 µM
SN12C renal
  GI50: > 100 µM
  TGI: > 100 µM
SK-OV-3 ovarian
  GI50: > 100 µM
  TGI: > 100 µM
UO-31 renal
  GI50: 17.7 µM
  TGI: > 100 µM
IGROV1 ovarian
  GI50: 31.6 µM
  TGI: 88 µM

## Nc1c([N+](=O)[O-])cc2c3c(cccc13)CC2
HS 578T breast
  TGI: > 100 µM
A549 NSCLC
  TGI: > 100 µM
OVCAR-5 ovarian
  TGI: > 100 µM
NCI-H226 lung
  TGI: > 100 µM
HL-60(TB) leukemia
  TGI: > 100 µM
MOLT-4 leukemia
  TGI: > 100 µM
SN12C renal
  TGI: > 100 µM
SK-OV-3 ovarian
  TGI: > 100 µM
UO-31 renal
  TGI: > 100 µM
IGROV1 ovarian
  TGI: > 100 µM

## CNC(=O)CC1NC(=O)c2csc(n2)-c2ccc(-c3nc(C4=NC(C(=O)N5CCCC5C(N)=O)CO4)cs3)nc2-c2csc(n2)-c2csc(n2)C(C(C)C)NC(=O)CNC(=O)c2csc(n2)C(C(C)C)NC(=O)c2nc1sc2C (configuration not stated)
HS 578T breast
  GI50: < 0.001 µM
A549 NSCLC
  GI50: > 25 µM
  TGI: > 25 µM
NCI-H226 lung
  GI50: > 25 µM
  TGI: > 25 µM
HL-60(TB) leukemia
  GI50: < 0.001 µM
MOLT-4 leukemia
  GI50: 1.63 µM
  TGI: > 25 µM
SN12C renal
  GI50: > 25 µM
  TGI: > 25 µM
SK-OV-3 ovarian
  GI50: > 25 µM
  TGI: 6.03 µM and > 25 µM
UO-31 renal
  GI50: > 25 µM
  TGI: > 25 µM
IGROV1 ovarian
  GI50: > 25 µM

## Cc1cc(=O)[nH]c2cc3c(c4c(n3Cc3ccc(Cl)cc3Cl)CC(C)(C)CC4=O)c(O)c12
HS 578T breast
  GI50: 49.2 µM
  TGI: > 100 µM
A549 NSCLC
  GI50: 46.3 µM
  TGI: > 100 µM
NCI-H226 lung
  GI50: > 100 µM
  TGI: > 100 µM
HL-60(TB) leukemia
  GI50: > 100 µM
  TGI: > 100 µM
MOLT-4 leukemia
  GI50: > 100 µM
  TGI: > 100 µM
SN12C renal
  GI50: > 100 µM
  TGI: > 100 µM
SK-OV-3 ovarian
  GI50: > 100 µM
  TGI: > 100 µM
UO-31 renal
  GI50: > 100 µM
  TGI: > 100 µM
IGROV1 ovarian
  GI50: > 100 µM
  TGI: > 100 µM

## COC(=O)C1=C(C(=O)OC)SC(=C(Cl)C(=S)Nc2ccccc2O)S1
HS 578T breast
  GI50: 31.6 µM
  TGI: > 50 µM
A549 NSCLC
  GI50: 21.2 µM
  TGI: > 50 µM
OVCAR-5 ovarian
  GI50: 11.6 µM
  TGI: 31.5 µM
NCI-H226 lung
  GI50: 13.9 µM
  TGI: 39.3 µM
HL-60(TB) leukemia
  GI50: 16.6 µM
  TGI: > 50 µM
MOLT-4 leukemia
  GI50: 46.8 µM
  TGI: > 50 µM
SN12C renal
  GI50: 9.69 µM
  TGI: 19.7 µM
SK-OV-3 ovarian
  GI50: 20 µM
  TGI: > 50 µM
UO-31 renal
  GI50: 14.4 µM
  TGI: 39.2 µM

## COc1ccc(C(=O)/C=C/c2ccc3c(c2)OCO3)c(OCc2ccccc2)c1
HS 578T breast
  TGI: > 100 µM
A549 NSCLC
  TGI: > 100 µM
OVCAR-5 ovarian
  TGI: > 100 µM
NCI-H226 lung
  TGI: > 100 µM
HL-60(TB) leukemia
  TGI: 6.47 µM
MOLT-4 leukemia
  TGI: > 26.4 µM
SN12C renal
  TGI: > 100 µM
SK-OV-3 ovarian
  TGI: > 100 µM
UO-31 renal
  TGI: > 100 µM
IGROV1 ovarian
  TGI: > 100 µM

## Cc1cc2[nH]c(=O)c3c4ccccc4cn3c2cc1C
HS 578T breast
  GI50: 25 µM
  TGI: 59.9 µM
A549 NSCLC
  GI50: 14.8 µM
  TGI: 37.7 µM
OVCAR-5 ovarian
  GI50: 13.8 µM
  TGI: 27.4 µM
NCI-H226 lung
  GI50: 15.1 µM
  TGI: 36.7 µM
MOLT-4 leukemia
  GI50: 5.68 µM
  TGI: 19.4 µM
SN12C renal
  GI50: 6.02 µM
  TGI: 20.3 µM
SK-OV-3 ovarian
  GI50: 18.4 µM
  TGI: 34.5 µM
UO-31 renal
  GI50: 14.6 µM
  TGI: 28 µM
IGROV1 ovarian
  GI50: 12.3 µM
  TGI: 26.6 µM

## O=c1[nH]c(=O)c2cc(C3CC(O)C(CO)O3)ccc2[nH]1 (configuration not stated)
HS 578T breast
  GI50: > 100 µM
  TGI: > 100 µM
A549 NSCLC
  GI50: > 100 µM
  TGI: > 100 µM
OVCAR-5 ovarian
  GI50: > 100 µM
  TGI: > 100 µM
NCI-H226 lung
  GI50: > 100 µM
  TGI: > 100 µM
MOLT-4 leukemia
  GI50: > 100 µM
  TGI: > 100 µM
SN12C renal
  GI50: > 100 µM
  TGI: > 100 µM
SK-OV-3 ovarian
  GI50: > 100 µM
  TGI: > 100 µM
UO-31 renal
  GI50: > 100 µM
  TGI: > 100 µM
IGROV1 ovarian
  GI50: > 100 µM
  TGI: > 100 µM

## Cc1ccc2nc(-c3ccccc3)c(N=O)n2c1
HS 578T breast
  TGI: > 100 µM
A549 NSCLC
  TGI: > 100 µM
OVCAR-5 ovarian
  TGI: > 100 µM
NCI-H226 lung
  TGI: > 100 µM
MOLT-4 leukemia
  TGI: > 100 µM
SN12C renal
  TGI: 61 µM
SK-OV-3 ovarian
  TGI: > 100 µM
UO-31 renal
  TGI: > 100 µM
IGROV1 ovarian
  TGI: > 100 µM

## COC(=O)C1CCCN1C(=O)[C@@H]1CCCN1C(=O)[C@H](Cc1c[nH]c2ccccc12)NC(=S)Nc1cc(C(F)(F)F)cc(C(F)(F)F)c1 (some centres not stated)
HS 578T breast
  GI50: 3.1 µM
  TGI: 11.4 µM
A549 NSCLC
  GI50: 1.98 µM
  TGI: 6.92 µM
NCI-H226 lung
  GI50: 2.26 µM
  TGI: 8.01 µM
HL-60(TB) leukemia
  GI50: 2.35 µM
  TGI: 5.95 µM
MOLT-4 leukemia
  GI50: 2.04 µM
  TGI: 8.62 µM
SN12C renal
  GI50: 2.82 µM
  TGI: 10.5 µM
SK-OV-3 ovarian
  GI50: 2.95 µM
  TGI: 11.4 µM
UO-31 renal
  GI50: 3.63 µM
  TGI: 14.5 µM
IGROV1 ovarian
  GI50: 3.34 µM
  TGI: 10.9 µM
